According to US12319648B2, “Fluorinated phenylacetic acid derivatives in a weed control method” (SYNGENTA CROP PROTECTION AG, priority 2019, dated 2025):

Assays:
Assay type in all cases: in vivo
[1] = tested on: Ipomoea hederacea (IPOHE); assay: Post-emergence herbicidal glasshouse test; settings: post-emergence, 250 g/ha, 13 days after application
Experimental: (§1) Seeds of a variety of test species are shown in standard soil in pots Amaranthus retoflexus (AMARE), Ipomoea hederacea (IPOHE), Solanum nigrum (SOLNI), Lolium perenne (LOLPE). Echinochloa crus-galli (ECHCG), Setaria faberi (SETFA)). After cultivation for one day (pre-emergence) or after 8 days cultivation (post-emergence) under controlled conditions in a glasshouse (at 24/16° C., day/night; 14 hours light; 65% humidity), the plants are sprayed with an aqueous spray solution derived from the formulation of the technical active ingredient in acetone/water (50:50) solution containing 0.5% Tween 20 (polyoxyethylene sorbitan monolaurate, CAS RN 9005-64-5). Compounds are applied at 250 g/ha unless otherwise stated. The test plants are then grown in a glasshouse under controlled conditions in a glasshouse (at 24/16° C., day/night; 14 hours light; 65% humidity) and watered twice daily. After 13 days for pre and post-emergence, the test is evaluated for the percentage damage caused to the plant. The biological activities are shown in the following table on a five-point scale (5=81-100%; 4=61-80%; 3=41-60%; 2=21-40%; 1=0-20%).
(§2) Using the experimental conditions outlined above, a further test is conducted to compare the herbicidal properties of the difluro containing compound (1.014) with a representative compound (C1) referred to in GB901553. The compounds are applied at 1000 g/ha and 500 g/ha. The test is evaluated for the percentage damage caused to the plant (% phytotoxicity).

[2] = tested on: Echinochloa crus-galli (ECHCG); assay: Post-emergence herbicidal glasshouse test; settings: post-emergence, 250 g/ha, 13 days after application
Experimental: as §1, §2

Setaria faberi (SETFA) [3] = assay: Post-emergence herbicidal glasshouse test; settings: post-emergence, 250 g/ha, 13 days after application
Experimental: as §1, §2

Solanum nigrum (SOLNI) [4] = assay: Post-emergence herbicidal glasshouse test; settings: post-emergence, 250 g/ha, 13 days after application
Experimental: as §1, §2

Lolium perenne (LOLPE) [5] = assay: Post-emergence herbicidal glasshouse test; settings: post-emergence, 250 g/ha, 13 days after application
Experimental: as §1, §2

[6] = tested on: Amaranthus retoflexus (AMARE); assay: Post-emergence herbicidal glasshouse test; settings: post-emergence, 250 g/ha, 13 days after application
Experimental: as §1, §2

[7] = tested on: Ipomoea hederacea (IPOHE); assay: Pre-emergence herbicidal glasshouse test; settings: pre-emergence, 250 g/ha, 13 days after application
Experimental: as §1, §2

[8] = tested on: Echinochloa crus-galli (ECHCG); assay: Pre-emergence herbicidal glasshouse test; settings: pre-emergence, 250 g/ha, 13 days after application
Experimental: as §1, §2

Setaria faberi (SETFA) [9] = assay: Pre-emergence herbicidal glasshouse test; settings: pre-emergence, 250 g/ha, 13 days after application
Experimental: as §1, §2

Solanum nigrum (SOLNI) [10] = assay: Pre-emergence herbicidal glasshouse test; settings: pre-emergence, 250 g/ha, 13 days after application
Experimental: as §1, §2

Lolium perenne (LOLPE) [11] = assay: Pre-emergence herbicidal glasshouse test; settings: pre-emergence, 250 g/ha, 13 days after application
Experimental: as §1, §2

[12] = tested on: Amaranthus retoflexus (AMARE); assay: Pre-emergence herbicidal glasshouse test; settings: pre-emergence, 250 g/ha, 13 days after application
Experimental: as §1, §2

| SMILES | percentage damage caused to the plant, five-point scale, IPOHE [1] | percentage damage caused to the plant, five-point scale, ECHCG [2] | percentage damage caused to the plant, five-point scale, SETFA (Setaria faberi (SETFA) [3]) | percentage damage caused to the plant, five-point scale, SOLNI (Solanum nigrum (SOLNI) [4]) | percentage damage caused to the plant, five-point scale, LOLPE (Lolium perenne (LOLPE) [5]) | percentage damage caused to the plant, five-point scale, AMARE [6] | percentage damage caused to the plant, five-point scale, IPOHE [7] | percentage damage caused to the plant, five-point scale, ECHCG [8] | percentage damage caused to the plant, five-point scale, SETFA (Setaria faberi (SETFA) [9]) | percentage damage caused to the plant, five-point scale, SOLNI (Solanum nigrum (SOLNI) [10]) | percentage damage caused to the plant, five-point scale, LOLPE (Lolium perenne (LOLPE) [11]) | percentage damage caused to the plant, five-point scale, AMARE [12] |
| --- | --- | --- | --- | --- | --- | --- | --- | --- | --- | --- | --- | --- |
| COC(=O)C(F)(F)c1ccc(Cl)cc1Cl [Compound 1.003] | 3 (3=41-60%) | 1 (1=0-20%) | 1 (1=0-20%) | 3 (3=41-60%) | 1 (1=0-20%) | 3 (3=41-60%) | 3 (3=41-60%) | 1 (1=0-20%) | 1 (1=0-20%) | 2 (2=21-40%) | 1 (1=0-20%) | 4 (4=61-80%) |
| O=C(O)C(F)(F)c1ccccc1Cl [Compound 1.011] | 3 (3=41-60%) | 1 (1=0-20%) | 1 (1=0-20%) | 5 (5=81-100%) | 1 (1=0-20%) | 5 (5=81-100%) | 4 (4=61-80%) | 1 (1=0-20%) | 2 (2=21-40%) | 4 (4=61-80%) | 1 (1=0-20%) | 5 (5=81-100%) |
| COC(=O)C(F)(F)c1c(Cl)ccc(Cl)c1Cl [Compound 1.002] | 2 (2=21-40%) | 1 (1=0-20%) | 1 (1=0-20%) | 4 (4=61-80%) | 1 (1=0-20%) | 4 (4=61-80%) | 1 (1=0-20%) | 1 (1=0-20%) | 1 (1=0-20%) | 1 (1=0-20%) | 1 (1=0-20%) | 4 (4=61-80%) |
| O=C(O)C(F)(F)c1ccc(Cl)cc1Cl [Compound 1.004] | 4 (4=61-80%) | 1 (1=0-20%) | 1 (1=0-20%) | 4 (4=61-80%) | 1 (1=0-20%) | 4 (4=61-80%) | 4 (4=61-80%) | 1 (1=0-20%) | 1 (1=0-20%) | 3 (3=41-60%) | 1 (1=0-20%) | 4 (4=61-80%) |
